The values that follow come from patent publication US7868135B2, “Compositions of lipopeptide antibiotic derivatives and methods of use thereof” (priority 2003, dated 2011).

Starred links: 1 amine or outer side, 2 acyl side, 3 side chain; linkers in the order of their positions; H or OH if unused. Positions of bridges follow the written chain, without caps; N, C: chain ends. Non-standard residues stand in square brackets, D forms with d. Residues, ends and D or L forms follow the SMILES beside them. ξ: configuration not given here. *: point of attachment. ξAbu(βξ-NH2) = CC(N[*:3])C(N[*:1])C(=O)[*:2]; X7 = CC(NC(=O)C1CCNCC1)C(N[*:1])C(=O)[*:2]; Pentadecanoyl = CCCCCCCCCCCCCCC(=O)*; ξAsp(βξ-Me) = CC(C(=O)O)C(N)C(=O)O; X12 = O=C(c1ccc(NN[*:1])cc1)[*:2]; ξAbu(3ξ-NH2) = CC(N)C(N)C(=O)O; Lauroyl = CCCCCCCCCCCC(=O)*; Pip = O=C(O)[CH]1CCCCN1

One experiment relates to Staphylococcus aureus (MSSA). Conditions: 24 h. As for the experimental part: (“Approved Standard M7-A3”).
The antimicrobial lipopeptide derivatives described herein were tested for antimicrobial activity against Gram-positive bacteria as follows. The minimum inhibitory concentrations (MIC) of the antimicrobial lipopeptide derivatives of the invention were determined using NCCLS guidelines M7-A6 (2003) with a slight modification in that doubling serial dilutions were used to dilute the test compounds. The broth phase microdilution method was used. Isolated colonies of Staphylococcus aureus (MSSA) from an 18-24 hour blood agar plate cultures were used to inoculate cation adjusted Mueller-Hinton broth (CAMHB) supplemented with 0.625 mM calcium. […] A negative control containing media alone and a positive growth control containing bacteria with media alone were also included. MICs were determined after incubating the plates at about 37° C. for 24 hours. […] In Tables 1 to 16, R is the core cyclic peptide of amphomycin or aspartocin, which can be in the form of a β-isomer, an anhydro, a dianhydro, or any combination thereof. […] Furthermore, a person of skill in the art will appreciate that all the pounds, or groups of compounds, derived from the various combinations of and substituents shown in Tables 1 to 16, are disclosed by the present the same extent as if each compound or group of compounds was set forth individually.
A word on the MIC: it is the lowest concentration found to suppress growth. For `CCCCCCCCCCCCCCC(=O)NC(CC(=O)O)C(=O)NC1C(=O)N2CCCCC2C(=O)NC(C(C)C(=O)O)C(=O)NC(CC(=O)O)C(=O)NCC(=O)NC(CC(=O)O)C(=O)NCC(=O)NC(C(C)NC(=O)[C@@H](N)CCCCN)C(=O)NC(C(C)C)C(=O)N2CCCC2C(=O)NC1C` (single isomer, unassigned) [Compound 129, C15-Amphomycin-9-Lys], the MIC amounted to 1 µg/mL.

For the compound `CCCCCCCCCCCCCCC(=O)NC(CC(=O)O)C(=O)NC1C(=O)N2CCCCC2C(=O)NC(C(C)C(=O)O)C(=O)NC(CC(=O)O)C(=O)NCC(=O)NC(CC(=O)O)C(=O)NCC(=O)NC(C(C)NC(=O)[C@@H](N)CCCCN)C(=O)NC(C(C)C)C(=O)N2CCCC2C(=O)NC1C` (single isomer, unassigned) [Compound 172, C15-Amphomycin-9-Lys], the MIC is 16 µg/mL.

Consider `CCCCCCCCCCCCCCC(=O)NC(CC(=O)O)C(=O)NC1C(=O)N2CCCCC2C(=O)NC(C(C)C(=O)O)C(=O)NC(CC(=O)O)C(=O)NCC(=O)NC(CC(=O)O)C(=O)NCC(=O)NC(C(C)NC(=O)[C@@H](N)CC(C)C)C(=O)NC(C(C)C)C(=O)N2CCCC2C(=O)NC1C` (stereo partly drawn) [Compound 5, C15-Amphomycin-9-Leu], for which the MIC was in the range of 16 to 32 µg/mL.

As to `CCCCCCCCCC(=O)NC(CC(=O)O)C(=O)NC1C(=O)N2CCCCC2C(=O)NC(C(C)C(=O)O)C(=O)NC(CC(=O)O)C(=O)NCC(=O)NC(CC(=O)O)C(=O)NCC(=O)NC(C(C)N)C(=O)NC(C(C)C)C(=O)N2CCCC2C(=O)NC1C` (stereo not drawn) [Compound 6, C10-Amphomycin], the minimal inhibitory concentration (MIC) lay within 32 to 64 µg/mL.

Turning to `CCCCCCCCCCC(=O)NC(CC(=O)O)C(=O)NC1C(=O)N2CCCCC2C(=O)NC(C(C)C(=O)O)C(=O)NC(CC(=O)O)C(=O)NCC(=O)NC(CC(=O)O)C(=O)NCC(=O)NC(C(C)N)C(=O)NC(C(C)C)C(=O)N2CCCC2C(=O)NC1C` (stereo not drawn) [Compound 7, C11-Amphomycin], the MIC lay in the range of 32 to 64 µg/mL.

As for `CCCCCCCCCCCC(=O)NC(CC(=O)O)C(=O)NC1C(=O)N2CCCCC2C(=O)NC(C(C)C(=O)O)C(=O)NC(CC(=O)O)C(=O)NCC(=O)NC(CC(=O)O)C(=O)NCC(=O)NC(C(C)N)C(=O)NC(C(C)C)C(=O)N2CCCC2C(=O)NC1C` (stereo not drawn) [Compound 8, C12-Amphomycin], the minimum inhibitory concentration (MIC) lay in the range of 4 to 8 µg/mL.

Turning to `CCCCCCCCCCCCC(=O)NC(CC(=O)O)C(=O)NC1C(=O)N2CCCCC2C(=O)NC(C(C)C(=O)O)C(=O)NC(CC(=O)O)C(=O)NCC(=O)NC(CC(=O)O)C(=O)NCC(=O)NC(C(C)N)C(=O)NC(C(C)C)C(=O)N2CCCC2C(=O)NC1C` (stereo not drawn) [Compound 9, C13-Amphomycin], the MIC was in the range of 0.5 to 1 µg/mL.

With `CCCCCCCCCCCCCC(=O)NC(CC(=O)O)C(=O)NC1C(=O)N2CCCCC2C(=O)NC(C(C)C(=O)O)C(=O)NC(CC(=O)O)C(=O)NCC(=O)NC(CC(=O)O)C(=O)NCC(=O)NC(C(C)N)C(=O)NC(C(C)C)C(=O)N2CCCC2C(=O)NC1C` (stereo not drawn) [Compound 10, C14-Amphomycin], the minimal inhibitory concentration (MIC) turned out to be 1 µg/mL.

Regarding `CCCCCCCCCCCCCCCCCC(=O)NC(CC(=O)O)C(=O)NC1C(=O)N2CCCCC2C(=O)NC(C(C)C(=O)O)C(=O)NC(CC(=O)O)C(=O)NCC(=O)NC(CC(=O)O)C(=O)NCC(=O)NC(C(C)N)C(=O)NC(C(C)C)C(=O)N2CCCC2C(=O)NC1C` (stereo not drawn) [Compound 13, C18-Amphomycin], the MIC is 2 µg/mL.

In the case of `CCCCCCCCCCOc1ccc(C(=O)NC(CC(=O)O)C(=O)NC2C(=O)N3CCCCC3C(=O)NC(C(C)C(=O)O)C(=O)NC(CC(=O)O)C(=O)NCC(=O)NC(CC(=O)O)C(=O)NCC(=O)NC(C(C)N)C(=O)NC(C(C)C)C(=O)N3CCCC3C(=O)NC2C)cc1` (stereo not drawn) [Compound 18, CH3—(CH2)9—O-p-Ph-C(═O)-Amphomycin], the MIC fell in the range of 0.5 to 1 µg/mL.

As to `CCCCCCCCOc1ccc(C(=O)NC(CC(=O)O)C(=O)NC2C(=O)N3CCCCC3C(=O)NC(C(C)C(=O)O)C(=O)NC(CC(=O)O)C(=O)NCC(=O)NC(CC(=O)O)C(=O)NCC(=O)NC(C(C)N)C(=O)NC(C(C)C)C(=O)N3CCCC3C(=O)NC2C)cc1` (stereo not drawn) [Compound 19, CH3—(CH2)7—O-p-Ph-C(═O)-Amphomycin], the MIC was determined as 0.5 µg/mL.

For `CCCCCCCCCCCC(=O)NNc1ccc(C(=O)NC(CC(=O)O)C(=O)NC2C(=O)N3CCCCC3C(=O)NC(C(C)C(=O)O)C(=O)NC(CC(=O)O)C(=O)NCC(=O)NC(CC(=O)O)C(=O)NCC(=O)NC(C(C)N)C(=O)NC(C(C)C)C(=O)N3CCCC3C(=O)NC2C)cc1` (stereo not drawn) [Compound 21, C12-p-Hydrazinobenzoic Acid-Amphomycin] (Lauroyl-[X12]D[ξAbu(βξ-NH2)][Pip][ξAsp(βξ-Me)]DGDG[ξAbu(3ξ-NH2)]VP; lactam 3-C; configuration not given here), the MIC was 1 µg/mL.

With `CCCCCCCCCCCCCCC(=O)NC(CC(=O)O)C(=O)NC1C(=O)N2CCCCC2C(=O)NC(C(C)C(=O)O)C(=O)NC(CC(=O)O)C(=O)NCC(=O)NC(CC(=O)O)C(=O)NCC(=O)NC(C(C)NC(=O)CCCCCN)C(=O)NC(C(C)C)C(=O)N2CCCC2C(=O)NC1C` (stereo not drawn) [Compound 25, C15-Amphomycin-9-Ahx], the MIC is 1 µg/mL.

For `CCCCCCCCCCCCCCC(=O)NC(CC(=O)O)C(=O)NC1C(=O)N2CCCCC2C(=O)NC(C(C)C(=O)O)C(=O)NC(CC(=O)O)C(=O)NCC(=O)NC(CC(=O)O)C(=O)NCC(=O)NC(C(C)NC(=O)C2CCNCC2)C(=O)NC(C(C)C)C(=O)N2CCCC2C(=O)NC1C` (stereo not drawn) [Compound 26, C15-Amphomycin-9-Ina] (Pentadecanoyl-D[ξAbu(βξ-NH2)][Pip][ξAsp(βξ-Me)]DGDG[X7]VP; lactam 2-C; configuration not given here), the minimal inhibitory concentration (MIC) was determined as 4 µg/mL.

As to `CCCCCCCCCCCCCCC(=O)NC(CC(=O)O)C(=O)NC1C(=O)N2CCCCC2C(=O)NC(C(C)C(=O)O)C(=O)NC(CC(=O)O)C(=O)NCC(=O)NC(CC(=O)O)C(=O)NCC(=O)NC(C(C)NC(=O)[C@@H](N)Cc2ccc([N+](=O)[O-])cc2)C(=O)NC(C(C)C)C(=O)N2CCCC2C(=O)NC1C` (stereo partly drawn) [Compound 27, C15-Amphomycin-9-(P—NO2-Phe)], the MIC was in the range of 32 to 64 µg/mL.

For the compound `CCCCCCCCCCCCCCC(=O)NC(CC(=O)O)C(=O)NC1C(=O)N2CCCCC2C(=O)NC(C(C)C(=O)O)C(=O)NC(CC(=O)O)C(=O)NCC(=O)NC(CC(=O)O)C(=O)NCC(=O)NC(C(C)NC(=O)CNC(=O)[C@@H](N)Cc2ccccc2)C(=O)NC(C(C)C)C(=O)N2CCCC2C(=O)NC1C` (stereo partly drawn) [Compound 28, C15-Amphomycin-9-Gly-Phe], the minimal inhibitory concentration (MIC) stood at 2 µg/mL.

For `CCCCCCCCCCCCCCC(=O)NC(CC(=O)O)C(=O)NC1C(=O)N2CCCCC2C(=O)NC(C(C)C(=O)O)C(=O)NC(CC(=O)O)C(=O)NCC(=O)NC(CC(=O)O)C(=O)NCC(=O)NC(C(C)NC(=O)[C@@H](N)CCC(=O)O)C(=O)NC(C(C)C)C(=O)N2CCCC2C(=O)NC1C` (stereo partly drawn) [Compound 29, C15-Amphomycin-9-Glu], the minimal inhibitory concentration (MIC) was 1 µg/mL.

In the case of `CCCCCCCCCCCCCCC(=O)NC(CC(=O)O)C(=O)NC1C(=O)N2CCCCC2C(=O)NC(C(C)C(=O)O)C(=O)NC(CC(=O)O)C(=O)NCC(=O)NC(CC(=O)O)C(=O)NCC(=O)NC(C(C)NC(=O)[C@@H](N)Cc2ccc(F)cc2)C(=O)NC(C(C)C)C(=O)N2CCCC2C(=O)NC1C` (stereo partly drawn) [Compound 30, C15-Amphomycin-9-(P—F-Phe)], the MIC lay within 32 to 64 µg/mL.

For the compound `CCCCCCCCCCCCCCC(=O)NC(CC(=O)O)C(=O)NC1C(=O)N2CCCCC2C(=O)NC(C(C)C(=O)O)C(=O)NC(CC(=O)O)C(=O)NCC(=O)NC(CC(=O)O)C(=O)NCC(=O)NC(C(C)NC(=O)[C@@H](N)CC2CCCCC2)C(=O)NC(C(C)C)C(=O)N2CCCC2C(=O)NC1C` (stereo partly drawn) [Compound 31, C15-Amphomycin-9-(β-Cha)], the minimal inhibitory concentration (MIC) came to 16 µg/mL.

In the case of `CCCCCCCCCCCCCCC(=O)NC(CC(=O)O)C(=O)NC1C(=O)N2CCCCC2C(=O)NC(C(C)C(=O)O)C(=O)NC(CC(=O)O)C(=O)NCC(=O)NC(CC(=O)O)C(=O)NCC(=O)NC(C(C)NC(=O)[C@@H](N)CCc2ccccc2)C(=O)NC(C(C)C)C(=O)N2CCCC2C(=O)NC1C` (stereo partly drawn) [Compound 32, C15-Amphomycin-9-hPhe], the MIC turned out to be 8 µg/mL.

`CCCCCCCCCCCCCCC(=O)NC(CC(=O)O)C(=O)NC1C(=O)N2CCCCC2C(=O)NC(C(C)C(=O)O)C(=O)NC(CC(=O)O)C(=O)NCC(=O)NC(CC(=O)O)C(=O)NCC(=O)NC(C(C)NC(=O)CNC(=O)CNC(=O)CN)C(=O)NC(C(C)C)C(=O)N2CCCC2C(=O)NC1C` (stereo not drawn) [Compound 33, C15-Amphomycin-9-Gly-Gly-Gly]: the MIC is 0.5 to 1 µg/mL.

On to `CCCCCCCCCCCCCCC(=O)NC(CC(=O)O)C(=O)NC1C(=O)N2CCCCC2C(=O)NC(C(C)C(=O)O)C(=O)NC(CC(=O)O)C(=O)NCC(=O)NC(CC(=O)O)C(=O)NCC(=O)NC(C(C)NC(=O)CCCCCCCCCCN)C(=O)NC(C(C)C)C(=O)N2CCCC2C(=O)NC1C` (stereo not drawn) [Compound 34, C15-Amphomycin-9-C(═O)—(CH2)10—NH2], for which the minimal inhibitory concentration (MIC) is 32 to 64 µg/mL.

Turning to `CCCCCCCCCCCCCCC(=O)NC(CC(=O)O)C(=O)NC1C(=O)N2CCCCC2C(=O)NC(C(C)C(=O)O)C(=O)NC(CC(=O)O)C(=O)NCC(=O)NC(CC(=O)O)C(=O)NCC(=O)NC(C(C)NC(=O)[C@@H](N)CC#N)C(=O)NC(C(C)C)C(=O)N2CCCC2C(=O)NC1C` (stereo partly drawn) [Compound 35, C15-Amphomycin-9-(β-Cyano-Ala)], the minimal inhibitory concentration (MIC) lay within 8 to 16 µg/mL.

The experiment is the same for the next values; noted with them: S. aureus (MSSA), CAMHB supplemented with 0.625 mM calcium, 24 hours at about 37° C.; a range = compound tested multiple times.
Regarding `CCCCCCCCCCCCCC(=O)NC(CC(=O)O)C(=O)NC1C(=O)N2CCCCC2C(=O)NC(C(C)C(=O)O)C(=O)NC(CC(=O)O)C(=O)NCC(=O)NC(CC(=O)O)C(=O)NCC(=O)NC(C(C)NC(=O)CN)C(=O)NC(C(C)C)C(=O)N2CCCC2C(=O)NC1C` (stereo not drawn) [Compound 23, C14-Amphomycin-9-Gly], the MIC is given as 23/8-16 μg/mL.
